Patent US10815274B2, “Immunogenic WT-1 peptides and methods of use thereof” (Memorial Sloan Kettering Cancer Center, priority 2012, dated 2020)
Where a SMILES comes first, the peptide text is derived from it.

Legend:
WT1- autologous APC = test: Cr51 release assay, cytotoxic CTL response vs unmodified autologous APC; assay type: cell-based, human; conditions: 50:1 E:T
[1] = tested on: WT1 peptide loaded autologous APC; test: Cr51 release assay, cytotoxic CTL response vs peptide loaded autologous APC; assay type: cell-based, human; conditions: 50:1 E:T
WT1- leukemia = test: Cr51 release assay, cytotoxic CTL response vs WT1- leukemia; assay type: cell-based, human; conditions: 50:1 E:T
Description: (§1) Twenty-four primary leukemic cells and 1 leukemic cell line were characterized for their expression of WT1 by intracellular FACS staining using murine anti-human WT1 monoclonal antibodies (Neomarkers, Fremont, Calif.) as previously described (32,38) The WT1+ leukemias included blast cells from 11 primary AMLs, 3 primary ALLs and 1B-cell precursor ALL cell line. Ten WT1-leukemias, were used as controls, and included 3 B-cell precursor ALLs and 7 AMLs.

WT1+ leukemia = test: Cr51 release assay, cytotoxic CTL response vs WT1+ leukemia expressing restricting HLA allele; assay type: cell-based, human
Description: as §1
PHA blasts were not available from every patient that provided leukemia blasts for this study.

PHA blasts = test: Cr51 release assay, cytotoxic CTL response vs PHA blasts from the same leukemic patient; assay type: cell-based, human; conditions: HLA allele A0201; 50:1 E:T; PHA blasts from same patients as the leukemia
[2] = tested on: WT1- allo APC with restricting HLA allele; test: Cr51 release assay, cytotoxic CTL response vs unloaded allogeneic APC sharing restricting HLA allele; assay type: cell-based, human; conditions: 50:1 E:T
[3] = tested on: WT1+ allo APC with restricting HLA allele loaded with WT1 peptide; test: Cr51 release assay, cytotoxic CTL response vs peptide loaded allogeneic APC sharing restricting HLA allele (HLA restriction); conditions: 50:1 E:T
[4] = tested on: T-cells sensitized with the WT1 total pool; test: IFNγ production by WT1 specific T-cells (FACS of intracellular IFNγ) after secondary stimulation with peptide loaded autologous PBMC; epitope mapping; assay type: cell-based, human; conditions: for CD4+ and CD8+ T-cell responses to specific 15-mers: 4 of the 56 donors tested
Method: To generate WT1-specific CTLs, PBMC were isolated by Ficoll-Hypaque density gradient centrifugation. Monocytes were depleted by adherence on plastic and NK cells by absorption to immunomagnetic CD56 pre-coated microbeads (Miltenyi Biotech Inc, MA) as previously described (32). Enriched T-cell fractions were stimulated at a 20:1 responder:stimulator ratio with autologous CAMs or EBV-BLCL that had been pre-loaded for 3 hours with the total pool of the WT1 pentadecapeptides in serum-free medium and irradiated to 3000 cGy.
T-cell responses to each subpool were quantitated by FACS analysis of T-cells bearing intracellular IFNγ as previously described (41). The mapping grid (FIG. 2B) was then used to identify specific WT1 15-mers uniquely shared by 2 subpools eliciting T-cell responses.

Compound: CC(C)C[C@H](NC(=O)[C@@H](N)CCCCN)C(=O)NCC(=O)N[C@@H](C)C(=O)N[C@@H](C)C(=O)N[C@@H](CCC(=O)O)C(=O)N[C@@H](C)C(=O)N[C@@H](CO)C(=O)N[C@@H](C)C(=O)O [SEQ ID NO: 150] (H-KLGAAEASA-OH; N-terminus and C-terminus assumed)
- Cytotoxic CTL response, % vs WT1- autologous APC (WT1- autologous APC; HLA allele A0201): 3%
- Cytotoxic CTL response, % vs WT1 peptide loaded autologous APC ([1]; HLA allele A0201): 41%
- Cytotoxic CTL response, % vs WT1- leukemia (WT1- leukemia; HLA allele A0201): 10%
- Cytotoxic CTL response, % vs WT1+ Leukemia (WT1+ leukemia; HLA allele A0201, 50:1 E:T): 37%
- Cytotoxic CTL response, % vs WT1+ leukemia (WT1+ leukemia; HLA allele A0201, 50:1 E:T): 37%
- Cytotoxic CTL response, % vs PHA blasts (PHA blasts): 8%
- Cytotoxic CTL response, % vs WT1- allo APC with restricting HLA allele ([2]; HLA allele A0201): 2%
- Cytotoxic CTL response, % vs WT1+ allo APC with restricting HLA allele loaded with WT1 peptide ([3]; HLA allele A0201): 22%

Compound: CSCC[C@H](NC(=O)[C@H](CCC(N)=O)NC(=O)[C@H](CC(N)=O)NC(=O)[C@H](Cc1c[nH]c2ccccc12)NC(=O)[C@@H](NC(=O)[C@H](CCSC)NC(=O)[C@@H](N)CS)[C@@H](C)O)C(=O)N[C@@H](CC(N)=O)C(=O)N[C@@H](CC(C)C)C(=O)NCC(=O)N[C@@H](C)C(=O)N[C@H](C(=O)N[C@@H](CC(C)C)C(=O)N[C@@H](CCCCN)C(=O)NCC(=O)O)[C@@H](C)O [SEQ ID NO: 174] (H-CMTWNQMNLGATLKG-OH)
- Cytotoxic CTL response, % vs WT1- autologous APC (WT1- autologous APC; HLA allele DRB10402): 4%
- Cytotoxic CTL response, % vs WT1 peptide loaded autologous APC ([1]; HLA allele DRB10402): 16%
- CD4+ and CD8+ T-cell responses to specific 15-mers [4]: both CD4+ and CD8+ T-cell responses
- IFNg response of cells, % IFNg+ cells: No WT1 peptide ([4]; HLA allele DRB10402): 0.07%
- IFNg response of cells, % IFNg+ cells: WT1 peptide loaded ([4]; HLA allele DRB10402): 0.53%
- CD4+ T-cell responses ([4]; restricted by HLA DRB1 0402): elicited CD4+ T-cell responses
- Cytotoxic CTL response, % vs WT1- leukemia (WT1- leukemia; HLA allele DRB10402): 1%
- Cytotoxic CTL response, % vs WT1+ leukemia (WT1+ leukemia; HLA allele DRB10402, 50:1 E:T): 17%
- Cytotoxic CTL response, % vs WT1- allo APC with restricting HLA allele ([2]; HLA allele DRB10402): 2%
- Cytotoxic CTL response, % vs WT1+ allo APC with restricting HLA allele loaded with WT1 peptide ([3]; HLA allele DRB10402): 15%

Compound: KRPFMCAYPGC (listed as Homo sapiens) [SEQ ID NO: 180]
- Cytotoxic CTL response, % vs WT1- autologous APC (WT1- autologous APC; HLA allele DRB10401): 9%
- Cytotoxic CTL response, % vs WT1 peptide loaded autologous APC ([1]; HLA allele DRB10401): 5%
- IFNg response of cells, % IFNg+ cells: No WT1 peptide ([4]; HLA allele DRB10401): 0.91%
- IFNg response of cells, % IFNg+ cells: WT1 peptide loaded ([4]; HLA allele DRB10401): 3.48%
- Cytotoxic CTL response, % vs WT1- leukemia (WT1- leukemia; HLA allele DRB10401): 5%
- Cytotoxic CTL response, % vs WT1+ leukemia (WT1+ leukemia; HLA allele DRB10401, 50:1 E:T): 5%
- Cytotoxic CTL response, % vs WT1- allo APC with restricting HLA allele ([2]; HLA allele DRB10401): 3%
- Cytotoxic CTL response, % vs WT1+ allo APC with restricting HLA allele loaded with WT1 peptide ([3]; HLA allele DRB10401): 0%

Compound: NLYQMTSQLE (listed as Homo sapiens) [SEQ ID NO: 170]
- Cytotoxic CTL response, % vs WT1- autologous APC (WT1- autologous APC; HLA allele A0201): 3%
- Cytotoxic CTL response, % vs WT1 peptide loaded autologous APC ([1]; HLA allele A0201): 87%
- IFNg response of cells, % IFNg+ cells: No WT1 peptide ([4]; HLA allele A0201): 0.13%
- IFNg response of cells, % IFNg+ cells: WT1 peptide loaded ([4]; HLA allele A0201): 0.9%
- Cytotoxic CTL response, % vs WT1- leukemia (WT1- leukemia; HLA allele A0201): 0%
- Cytotoxic CTL response, % vs WT1+ leukemia (WT1+ leukemia; HLA allele A0201, 50:1 E:T): 0%
- Lysis of HLA-A0201+ WT1+ leukemic cells (WT1+ leukemia; peptide presented by HLA A0201): could not lyse
- Cytotoxic CTL response, % vs WT1- allo APC with restricting HLA allele ([2]; HLA allele A0201): 3%
- Cytotoxic CTL response, % vs WT1+ allo APC with restricting HLA allele loaded with WT1 peptide ([3]; HLA allele A0201): 28%

Compound: H2N-RSGPG CLQQP EQQGV-COOH (H-RSGPGCLQQPEQQGV-OH; listed as Homo sapiens) [SEQ ID NO: 20]
- CD4+ and CD8+ T-cell responses to specific 15-mers [4]: both CD4+ and CD8+ T-cell responses
